Data: the NIST ThermoML archive (doi:10.1016/j.jct.2006.02.005)
“And” between values parts separate entries of the source, which are not always exact repeats. Equal entries are not always repeated. Numbers after ± are expanded uncertainties.

Assays:
[1] = for Normal melting temperature: Crystal 1; for Triple point temperature: Crystal 2
[2] = Molar enthalpy of transition or fusion
[3] = molar heat capacity at constant pressure; conditions: 101.33 kPa

NC(CO)(CO)CO [2-amino-2-(hydroxymethyl)-1,3-propanediol]
[1]
Conditions	Normal melting temperature [°C]	Triple point temperature [K]
–	171.42 ± 1	409.2 ± 1

[2]
Conditions	Molar enthalpy of transition or fusion [kcal/mol]
Crystal 1	0.742 ± 0.0837
Crystal 2	8 ± 0.382

[3]
Conditions	molar heat capacity at constant pressure
193.15 K, Crystal 2	122.47 ± 4.9 J/K/mol and 125.13 ± 5 J/K/mol and 118.14 ± 4.7 J/K/mol
198.15 K, Crystal 2	123.8 ± 5 J/K/mol and 126.58 ± 5.1 J/K/mol and 119.34 ± 4.8 J/K/mol
203.15 K, Crystal 2	124.41 ± 5 J/K/mol and 128.03 ± 5.1 J/K/mol and 119.97 ± 4.8 J/K/mol
208.15 K, Crystal 2	130.34 ± 5.2 J/K/mol and 121.62 ± 4.9 J/K/mol and 126.22 ± 5 J/K/mol
213.15 K, Crystal 2	128.53 ± 5.1 J/K/mol and 132.76 ± 5.3 J/K/mol and 124.17 ± 5 J/K/mol
218.15 K, Crystal 2	130.83 ± 5.2 J/K/mol and 135.3 ± 5.4 J/K/mol and 125.62 ± 5 J/K/mol
223.15 K, Crystal 2	133.13 ± 5.3 J/K/mol and 137.12 ± 5.5 J/K/mol and 127.31 ± 5.1 J/K/mol
228.15 K, Crystal 2	135.31 ± 5.4 J/K/mol and 138.33 ± 5.5 J/K/mol and 129.5 ± 5.2 J/K/mol
233.15 K, Crystal 2	131.07 ± 5.2 J/K/mol and 137.49 ± 5.5 J/K/mol and 140.87 ± 5.6 J/K/mol
238.15 K, Crystal 2	133.61 ± 5.3 J/K/mol and 139.67 ± 5.6 J/K/mol and 143.78 ± 5.8 J/K/mol
243.15 K, Crystal 2	139.07 ± 5.6 J/K/mol and 142.09 ± 5.7 J/K/mol and 145.84 ± 5.8 J/K/mol
248.15 K, Crystal 2	143.18 ± 5.7 J/K/mol and 144.27 ± 5.8 J/K/mol and 148.75 ± 6 J/K/mol
253.15 K, Crystal 2	144.76 ± 5.8 J/K/mol and 146.7 ± 5.9 J/K/mol and 151.05 ± 6 J/K/mol
258.15 K, Crystal 2	146.82 ± 5.9 J/K/mol and 149.24 ± 6 J/K/mol and 153.23 ± 6.1 J/K/mol
263.15 K, Crystal 2	150.82 ± 6 J/K/mol and 152.03 ± 6.1 J/K/mol and 155.65 ± 6.2 J/K/mol
268.15 K, Crystal 2	154.81 ± 6.2 J/K/mol and 154.69 ± 6.2 J/K/mol and 158.07 ± 6.3 J/K/mol
273.15 K, Crystal 2	156.87 ± 6.3 J/K/mol and 156.99 ± 6.3 J/K/mol and 160.74 ± 6.4 J/K/mol
278.15 K, Crystal 2	157.96 ± 6.3 J/K/mol and 159.66 ± 6.4 J/K/mol and 163.65 ± 6.5 J/K/mol
283.15 K, Crystal 2	160.99 ± 6.4 J/K/mol and 162.69 ± 6.5 J/K/mol and 166.8 ± 6.7 J/K/mol
288.15 K, Crystal 2	163.78 ± 6.5 J/K/mol and 165.84 ± 6.6 J/K/mol and 169.46 ± 6.8 J/K/mol
293.15 K, Crystal 2	166.32 ± 6.7 J/K/mol and 169.11 ± 6.8 J/K/mol and 171.4 ± 6.9 J/K/mol
298.15 K, Crystal 2	169.83 ± 6.8 J/K/mol and 171.89 ± 6.9 J/K/mol and 174.79 ± 7 J/K/mol
303.15 K, Crystal 2	172.14 ± 6.9 J/K/mol and 174.44 ± 7 J/K/mol and 179.03 ± 7.2 J/K/mol
308.15 K, Crystal 2	173.95 ± 7 J/K/mol and 177.34 ± 7.1 J/K/mol and 182.3 ± 7.3 J/K/mol
313.15 K, Crystal 2	175.89 ± 7 J/K/mol and 180.01 ± 7.2 J/K/mol and 185.33 ± 7.4 J/K/mol
318.15 K, Crystal 2	180.37 ± 7.2 J/K/mol and 182.55 ± 7.3 J/K/mol and 188.36 ± 7.5 J/K/mol
323.15 K, Crystal 2	185.82 ± 7.4 J/K/mol and 185.1 ± 7.4 J/K/mol and 191.63 ± 7.7 J/K/mol
328.15 K, Crystal 2	189.46 ± 7.6 J/K/mol and 187.4 ± 7.5 J/K/mol and 194.41 ± 7.8 J/K/mol
333.15 K, Crystal 2	192 ± 7.7 J/K/mol and 189.82 ± 7.6 J/K/mol and 197.08 ± 7.9 J/K/mol
338.15 K, Crystal 2	195.52 ± 7.8 J/K/mol and 192.24 ± 7.7 J/K/mol and 200.35 ± 8 J/K/mol
343.15 K, Crystal 2	198.06 ± 7.9 J/K/mol and 194.3 ± 7.8 J/K/mol and 203.14 ± 8.1 J/K/mol
348.15 K, Crystal 2	200.6 ± 8 J/K/mol and 196.97 ± 7.9 J/K/mol and 206.04 ± 8.2 J/K/mol
353.15 K, Crystal 2	203.15 ± 8.1 J/K/mol and 199.15 ± 8 J/K/mol and 209.19 ± 8.4 J/K/mol
358.15 K, Crystal 2	201.94 ± 8.1 J/K/mol and 211.86 ± 8.5 J/K/mol and 205.93 ± 8.2 J/K/mol
363.15 K, Crystal 2	209.93 ± 8.4 J/K/mol and 203.99 ± 8.2 J/K/mol and 214.4 ± 8.6 J/K/mol
368.15 K, Crystal 2	212.96 ± 8.5 J/K/mol and 206.78 ± 8.3 J/K/mol and 217.31 ± 8.7 J/K/mol
373.15 K, Crystal 2	215.26 ± 8.6 J/K/mol and 209.45 ± 8.4 J/K/mol and 219.61 ± 8.8 J/K/mol
378.15 K, Crystal 2	218.17 ± 8.7 J/K/mol and 212.35 ± 8.5 J/K/mol and 222.64 ± 8.9 J/K/mol
383.15 K, Crystal 2	221.8 ± 8.9 J/K/mol and 214.9 ± 8.6 J/K/mol and 226.15 ± 9.1 J/K/mol
388.15 K, Crystal 2	227.37 ± 9.1 J/K/mol and 217.93 ± 8.7 J/K/mol and 229.78 ± 9.2 J/K/mol
393.15 K, Crystal 2	229.31 ± 9.2 J/K/mol and 221.32 ± 8.8 J/K/mol and 233.54 ± 9.3 J/K/mol
398.15 K, Crystal 2	234.28 ± 9.4 J/K/mol and 225.68 ± 9 J/K/mol and 237.9 ± 9.5 J/K/mol
423.15 K, Crystal 1	367.05 ± 15 J/K/mol and 386.4 ± 15 J/K/mol and 376.37 ± 15 J/K/mol
428.15 K, Crystal 1	368.14 ± 15 J/K/mol and 390.4 ± 16 J/K/mol and 378.19 ± 15 J/K/mol
433.15 K, Crystal 1	369.95 ± 15 J/K/mol and 393.79 ± 16 J/K/mol and 383.04 ± 15 J/K/mol
438.15 K, Crystal 1	396.7 ± 16 J/K/mol and 389.58 ± 16 J/K/mol and 371.65 ± 15 J/K/mol
453.15 K, Liquid	395.39 ± 16 J/K/mol
458.15 K, Liquid	396.6 ± 16 J/K/mol
463.15 K, Liquid	398.06 ± 16 J/K/mol
468.15 K, Liquid	400.36 ± 16 J/K/mol
473.15 K, Liquid	400.72 ± 16 J/K/mol

CC(N)(CO)CO [2-amino-2-methyl-1,3-propanediol]
[1]
Conditions	Normal melting temperature [°C]	Triple point temperature [K]
–	110.93 ± 1.2	355.66 ± 0.9

[2]
Conditions	Molar enthalpy of transition or fusion [kcal/mol]
Crystal 1	0.658 ± 0.0621
Crystal 2	5.63 ± 0.263

[3]
Conditions	molar heat capacity at constant pressure
193.15 K, Crystal 3	118.91 ± 4.8 J/K/mol and 107.45 ± 4.3 J/K/mol and 121.86 ± 4.9 J/K/mol
198.15 K, Crystal 3	121.86 ± 4.9 J/K/mol and 119.23 ± 4.8 J/K/mol and 108.93 ± 4.4 J/K/mol
203.15 K, Crystal 3	123.22 ± 4.9 J/K/mol and 119.86 ± 4.8 J/K/mol and 110.29 ± 4.4 J/K/mol
208.15 K, Crystal 3	119.54 ± 4.8 J/K/mol and 111.13 ± 4.5 J/K/mol and 124.91 ± 5 J/K/mol
213.15 K, Crystal 3	126.27 ± 5 J/K/mol and 119.96 ± 4.8 J/K/mol and 112.18 ± 4.5 J/K/mol
218.15 K, Crystal 3	127.85 ± 5.1 J/K/mol and 121.12 ± 4.8 J/K/mol and 113.66 ± 4.5 J/K/mol
223.15 K, Crystal 3	129.11 ± 5.2 J/K/mol and 122.28 ± 4.9 J/K/mol and 115.97 ± 4.6 J/K/mol
228.15 K, Crystal 3	130.37 ± 5.2 J/K/mol and 123.22 ± 4.9 J/K/mol and 118.39 ± 4.7 J/K/mol
233.15 K, Crystal 3	132.06 ± 5.3 J/K/mol and 124.17 ± 5 J/K/mol and 121.02 ± 4.8 J/K/mol
238.15 K, Crystal 3	133.84 ± 5.3 J/K/mol and 125.85 ± 5 J/K/mol and 124.17 ± 5 J/K/mol
243.15 K, Crystal 3	135 ± 5.4 J/K/mol and 129.32 ± 5.2 J/K/mol and 126.8 ± 5.1 J/K/mol
248.15 K, Crystal 3	136.37 ± 5.5 J/K/mol and 130.9 ± 5.2 J/K/mol and 128.8 ± 5.2 J/K/mol
253.15 K, Crystal 3	130.69 ± 5.2 J/K/mol and 135.32 ± 5.4 J/K/mol and 132.16 ± 5.3 J/K/mol
258.15 K, Crystal 3	131.32 ± 5.2 J/K/mol and 134.05 ± 5.4 J/K/mol and 134.16 ± 5.4 J/K/mol
263.15 K, Crystal 3	133 ± 5.3 J/K/mol and 134.05 ± 5.4 J/K/mol and 136.37 ± 5.5 J/K/mol
268.15 K, Crystal 3	134.16 ± 5.4 J/K/mol and 135.84 ± 5.4 J/K/mol and 137.52 ± 5.5 J/K/mol
273.15 K, Crystal 3	134.58 ± 5.4 J/K/mol and 137.42 ± 5.5 J/K/mol and 138.78 ± 5.5 J/K/mol
278.15 K, Crystal 3	136.79 ± 5.5 J/K/mol and 139.1 ± 5.6 J/K/mol and 140.47 ± 5.6 J/K/mol
283.15 K, Crystal 3	139.63 ± 5.6 J/K/mol and 140.68 ± 5.6 J/K/mol and 142.67 ± 5.7 J/K/mol
288.15 K, Crystal 3	142.04 ± 5.7 J/K/mol and 143.83 ± 5.8 J/K/mol
293.15 K, Crystal 3	143.62 ± 5.7 J/K/mol and 144.46 ± 5.8 J/K/mol and 145.83 ± 5.8 J/K/mol
298.15 K, Crystal 3	145.62 ± 5.8 J/K/mol and 146.46 ± 5.9 J/K/mol and 148.25 ± 5.9 J/K/mol
303.15 K, Crystal 3	147.51 ± 5.9 J/K/mol and 148.46 ± 5.9 J/K/mol and 151.61 ± 6.1 J/K/mol
308.15 K, Crystal 3	148.88 ± 6 J/K/mol and 150.03 ± 6 J/K/mol and 153.82 ± 6.2 J/K/mol
313.15 K, Crystal 3	150.67 ± 6 J/K/mol and 151.82 ± 6.1 J/K/mol and 154.56 ± 6.2 J/K/mol
318.15 K, Crystal 3	151.51 ± 6.1 J/K/mol and 154.35 ± 6.2 J/K/mol and 155.5 ± 6.2 J/K/mol
323.15 K, Crystal 3	152.66 ± 6.1 J/K/mol and 156.87 ± 6.3 J/K/mol and 158.97 ± 6.4 J/K/mol
328.15 K, Crystal 3	154.98 ± 6.2 J/K/mol and 159.5 ± 6.4 J/K/mol and 164.54 ± 6.6 J/K/mol
333.15 K, Crystal 3	157.6 ± 6.3 J/K/mol and 162.34 ± 6.5 J/K/mol and 168.33 ± 6.7 J/K/mol
338.15 K, Crystal 3	160.02 ± 6.4 J/K/mol and 165.49 ± 6.6 J/K/mol and 171.9 ± 6.9 J/K/mol
343.15 K, Crystal 3	163.07 ± 6.5 J/K/mol and 168.33 ± 6.7 J/K/mol and 176.74 ± 7.1 J/K/mol
348.15 K, Crystal 3	186.94 ± 7.5 J/K/mol and 175.58 ± 7 J/K/mol and 198.92 ± 8 J/K/mol
368.15 K, Crystal 1	297.97 ± 12 J/K/mol and 303.43 ± 12 J/K/mol and 287.35 ± 11 J/K/mol
373.15 K, Crystal 1	299.96 ± 12 J/K/mol and 302.7 ± 12 J/K/mol and 289.98 ± 12 J/K/mol
378.15 K, Crystal 1	306.17 ± 12 J/K/mol and 309.95 ± 12 J/K/mol and 295.76 ± 12 J/K/mol
393.15 K, Liquid	322.67 ± 13 J/K/mol and 320.57 ± 13 J/K/mol and 328.56 ± 13 J/K/mol
398.15 K, Liquid	327.41 ± 13 J/K/mol and 323.41 ± 13 J/K/mol and 339.71 ± 14 J/K/mol
403.15 K, Liquid	331.72 ± 13 J/K/mol and 325.62 ± 13 J/K/mol and 352.43 ± 14 J/K/mol
408.15 K, Liquid	327.83 ± 13 J/K/mol and 335.19 ± 13 J/K/mol
413.15 K, Liquid	330.03 ± 13 J/K/mol
